Drawing on patent publication US11541107B2, “Peptides and T cells for use in immunotherapeutic treatment of various cancers” (Immatics Biotechnologies GmbH, priority 2015, dated 2023), this text covers Peptide exchange for 62 substances.

The test system of the first test is HLA-A*24. Put plainly: MHC binding assay, UV-ligand exchange with beta2m ELISA, HLA-A*24. Set-up: species or system human. As to conditions: binding to HLA-A*24 ranged by peptide exchange yield (UV-ligand exchange, beta2m ELISA). The method, boiled down: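 Peptide–MHC complexes made by UV-ligand exchange of a UV-cleavable peptide. Exchange yield measured by ELISA: monomers diluted 100-fold on streptavidin-coated plates, 1 h at 37°C, detected with HRP anti-β2m (2 ug/ml) and TMB, absorbance at 450 nm.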
(In general: An ELISA detects its analyte on a solid surface through an enzyme-linked reagent.)
Take “368 (KYQNVKHNL; listed as Homo sapiens) [compound 368]”: the Peptide exchange entry is reported as “+++ (50%-75% = +++)”.

On to “367 (LYQDHMQYI; listed as Homo sapiens) [compound 367]”, for which the Peptide exchange entry was “++ (20%-49% = ++)”.

In the case of “378 (VYIAELEKI; listed as Homo sapiens) [compound 378]”, the Peptide exchange result is listed as “+++ (50%-75% = +++)”.

“369 (VYTHEVVTL; listed as Homo sapiens) [compound 369]”: the Peptide exchange entry is recorded as “+++ (50%-75% = +++)”.

As to “285 (VYVGDALLHAI; listed as Homo sapiens) [compound 285]”, the Peptide exchange result was “+++ (50%-75% = +++)”.

For “202 (RYVEGIVSL; listed as Homo sapiens) [compound 202]”, the Peptide exchange result is reported as “+++ (50%-75% = +++)”.

As to “109 (LFITGGQFF; listed as Homo sapiens) [compound 109]”, the Peptide exchange entry is “++++ (>=75% = ++++)”.

For the substance “171 (NYEDHFPLL; listed as Homo sapiens) [compound 171]”, the Peptide exchange result is listed as “+++ (50%-75% = +++)”.

Take “127 (QYFTGNPLF; listed as Homo sapiens) [compound 127]”: the Peptide exchange entry is on record as “+++ (50%-75% = +++)”.

Regarding “386 (TFSDVEAHF; listed as Homo sapiens) [compound 386]”, the Peptide exchange result is recorded as “+++ (50%-75% = +++)”.

In the case of “229 (IYQFVADSF; listed as Homo sapiens) [compound 229]”, the Peptide exchange result is “+++ (50%-75% = +++)”.

For the substance “152 (KFFDDLGDELLF; listed as Homo sapiens) [compound 152]”, the Peptide exchange result is reported as “++ (20%-49% = ++)”.

Take “128 (VYPFDWQYI; listed as Homo sapiens) [compound 128]”: the Peptide exchange result is “++++ (>=75% = ++++)”.

In the case of “312 (SYTSVLSRL; listed as Homo sapiens) [compound 312]”, the Peptide exchange entry is on record as “+++ (50%-75% = +++)”.

“303 (LYSVIKEDF; listed as Homo sapiens) [compound 303]”: the Peptide exchange result is listed as “+++ (50%-75% = +++)”.

Take “276 (QYLDVLHAL; listed as Homo sapiens) [compound 276]”: the Peptide exchange entry is “++++ (>=75% = ++++)”.

Consider “376 (VYTPVASRQSL; listed as Homo sapiens) [compound 376]”, for which the Peptide exchange result is on record as “+++ (50%-75% = +++)”.

As for “251 (VYTKALSSL; listed as Homo sapiens) [compound 251]”, the Peptide exchange entry is “+++ (50%-75% = +++)”.

As to “200 (VFIHHLPQF; listed as Homo sapiens) [compound 200]”, the Peptide exchange entry is listed as “+++ (50%-75% = +++)”.

In the case of “125 (VFSRDFGLLVF; listed as Homo sapiens) [compound 125]”, the Peptide exchange result was “+++ (50%-75% = +++)”.

Consider “245 (LYPQLFVVL; listed as Homo sapiens) [compound 245]”, for which the Peptide exchange result is “+++ (50%-75% = +++)”.

“214 (KYLMELTLI; listed as Homo sapiens) [compound 214]”: the Peptide exchange entry was “+++ (50%-75% = +++)”.

As for “254 (KYLESSATF; listed as Homo sapiens) [compound 254]”, the Peptide exchange entry is listed as “+++ (50%-75% = +++)”.

As for “345 (EYNSDLHQFF; listed as Homo sapiens) [compound 345]”, the Peptide exchange entry is on record as “+++ (50%-75% = +++)”.

In the case of “235 (VYKDSIYYI; listed as Homo sapiens) [compound 235]”, the Peptide exchange entry is listed as “+++ (50%-75% = +++)”.

With “243 (SYLELANTL; listed as Homo sapiens) [compound 243]”, the Peptide exchange result was “+++ (50%-75% = +++)”.

Take “120 (GYIEHFSLW; listed as Homo sapiens) [compound 120]”: the Peptide exchange result is reported as “++++ (>=75% = ++++)”.

Turning to “294 (RFPVQGTVTF; listed as Homo sapiens) [compound 294]”, the Peptide exchange result is reported as “+++ (50%-75% = +++)”.

Turning to “173 (QYLEKYYNL; listed as Homo sapiens) [compound 173]”, the Peptide exchange entry is “++++ (>=75% = ++++)”.

“201 (GYNPNRVFF; listed as Homo sapiens) [compound 201]”: the Peptide exchange entry is reported as “+++ (50%-75% = +++)”.

Take “208 (TYLEKIDGF; listed as Homo sapiens) [compound 208]”: the Peptide exchange result is given as “++++ (>=75% = ++++)”.

With “116 (AYVIAVHLF; listed as Homo sapiens) [compound 116]”, the Peptide exchange result was “++++ (>=75% = ++++)”.

Consider “377 (QYTPHSHQF; listed as Homo sapiens) [compound 377]”, for which the Peptide exchange result was “+++ (50%-75% = +++)”.

As for “284 (DYLKDPVTI; listed as Homo sapiens) [compound 284]”, the Peptide exchange entry is recorded as “+++ (50%-75% = +++)”.

For “252 (AFGQETNVPLNNF; listed as Homo sapiens) [compound 252]”, the Peptide exchange result is given as “++++ (>=75% = ++++)”.

“219 (SYLKAVFNL; listed as Homo sapiens) [compound 219]”: the Peptide exchange result is “+++ (50%-75% = +++)”.

On to “258 (AYAQLGYLL; listed as Homo sapiens) [compound 258]”, for which the Peptide exchange entry is recorded as “+++ (50%-75% = +++)”.

For the substance “242 (VYGEPRELL; listed as Homo sapiens) [compound 242]”, the Peptide exchange entry is given as “+++ (50%-75% = +++)”.

On to “178 (NYSSAVQKF; listed as Homo sapiens) [compound 178]”, for which the Peptide exchange entry is “+++ (50%-75% = +++)”.

Regarding “260 (VYMNVMTRL; listed as Homo sapiens) [compound 260]”, the Peptide exchange result is listed as “++++ (>=75% = ++++)”.

Turning to “383 (RYKPGEPITF; listed as Homo sapiens) [compound 383]”, the Peptide exchange entry was “+++ (50%-75% = +++)”.

Turning to “373 (GYISNGELF; listed as Homo sapiens) [compound 373]”, the Peptide exchange result was “+++ (50%-75% = +++)”.

“256 (VFGKSAYLF; listed as Homo sapiens) [compound 256]”: the Peptide exchange entry is recorded as “+++ (50%-75% = +++)”.

“233 (QYLTAAALHNL; listed as Homo sapiens) [compound 233]”: the Peptide exchange entry is “+++ (50%-75% = +++)”.

Regarding “290 (KYGDFKLLEF; listed as Homo sapiens) [compound 290]”, the Peptide exchange entry is “++++ (>=75% = ++++)”.

As for “289 (FFHEGQYVF; listed as Homo sapiens) [compound 289]”, the Peptide exchange entry is listed as “++++ (>=75% = ++++)”.

With “314 (RYFKGDYSI; listed as Homo sapiens) [compound 314]”, the Peptide exchange entry is “+++ (50%-75% = +++)”.

For “374 (VFLPRVTEL; listed as Homo sapiens) [compound 374]”, the Peptide exchange entry is on record as “++ (20%-49% = ++)”.

With “261 (GYIKLINFI; listed as Homo sapiens) [compound 261]”, the Peptide exchange entry is “++++ (>=75% = ++++)”.

On to “291 (YYLGSGRETF; listed as Homo sapiens) [compound 291]”, for which the Peptide exchange entry is given as “+++ (50%-75% = +++)”.

For the substance “188 (GYKTFFNEF; listed as Homo sapiens) [compound 188]”, the Peptide exchange result is “+++ (50%-75% = +++)”.

A further test concerns the target HLA-A*02 (Homo sapiens, UniProt P04439, D140Y/D185E/D98H/E176V/E277Q/G131W/G231S/I119V/I121R/I166T/I218V/L300P/N151K/N90K/P208A/P217A/Q86G/Q94H/R138H/R169H). Put plainly: MHC binding assay, UV-ligand exchange with beta2m ELISA, HLA-A*02. As to conditions: binding to HLA-A*02 ranged by peptide exchange yield (UV-ligand exchange, beta2m ELISA). From the text:
Candidate peptides for T cell based therapies according to the present invention were further tested for their MHC binding capacity (affinity). The individual peptide-MHC complexes were produced by UV-ligand exchange, where a UV-sensitive peptide is cleaved upon UV-irradiation, and exchanged with the peptide of interest as analyzed. Only peptide candidates that can effectively bind and stabilize the peptide-receptive MHC molecules prevent dissociation of the MHC complexes. To determine the yield of the exchange reaction, an ELISA was performed based on the detection of the light chain (ß2 m) of stabilized MHC complexes. The assay was performed as generally described in Rodenko et al. (Rodenko et al., 2006).
96 well MAXISorp plates (NUNC) were coated over night with 2 ug/ml streptavidin in PBS at room temperature, washed 4× and blocked for 1 h at 37° C. in 2% BSA containing blocking buffer. […] Peptide-MHC monomers of the UV-exchange reaction were diluted 100 fold in blocking buffer. Samples were incubated for 1 h at 37° C., washed four times, incubated with 2 ug/ml HRP conjugated anti-β2 m for 1h at 37° C., washed again and detected with TMB solution that is stopped with […]. Absorption was measured at 450 nm. Candidate peptides that show a high exchange yield (preferably higher than 50%, most preferred higher than 75%) are generally preferred for a generation and production of antibodies or fragments thereof, and/or T cell receptors or fragments thereof, as they show sufficient avidity to the MHC molecules and prevent dissociation of the MHC complexes.
Regarding “54 (FINPKGNWLL; listed as Homo sapiens) [compound 54]”, the Peptide exchange entry is listed as “+++ (50%-75% = +++)”.

For the substance “67 (GVIETVTSL; listed as Homo sapiens) [compound 67]”, the Peptide exchange entry was “++ (20%-49% = ++)”.

Take “71 (GLITVDIAL; listed as Homo sapiens) [compound 71]”: the Peptide exchange result is reported as “+++ (50%-75% = +++)”.

For the substance “83 (ELLEYLPQL; listed as Homo sapiens) [compound 83]”, the Peptide exchange entry is “+++ (50%-75% = +++)”.

For “87 (YLTEVFLHVV; listed as Homo sapiens) [compound 87]”, the Peptide exchange entry is on record as “+++ (50%-75% = +++)”.

As to “331 (AIWKELISL; listed as Homo sapiens) [compound 331]”, the Peptide exchange result is recorded as “+++ (50%-75% = +++)”.

As to “340 (SVAKTILKR; listed as Homo sapiens) [compound 340]”, the Peptide exchange result was “++ (20%-49% = ++)”.

For “55 (IASAIVNEL; listed as Homo sapiens) [compound 55]”, the Peptide exchange entry is listed as “++ (20%-49% = ++)”.

As to “338 (LLYDGKLSSA; listed as Homo sapiens) [compound 338]”, the Peptide exchange entry is recorded as “++ (20%-49% = ++)”.

For “327 (SIGDIFLKY; listed as Homo sapiens) [compound 327]”, the Peptide exchange result is given as “+++ (50%-75% = +++)”.

In the case of “6 (FLDPAQRDL; listed as Homo sapiens) [compound 6]”, the Peptide exchange result was “+++ (50%-75% = +++)”.
